Results taken from publication PMC10257182, “Discovery of senolytics using machine learning” (Nature Communications, 2023).
Where two headings read alike, the source gives them in different places.

Experiments:
Assay type in all cases: cell-based, human
[1] = system: senescent IMR90 ER:RAS cells (4-OHT-induced); test: Nuclei count (Hoechst, high content imaging) senolytic assay, oncogene-induced senescence (OIS) model, senescent cells; conditions: for viability at 10 µM / viability at 4.677 µM / viability at 2.188 µM / viability at 1 µM / viability at 0.4677 µM / viability at 0.2188 µM / viability at 0.1 µM / viability at 0.04677 µM / viability at 0.02188 µM / viability at 0.01 µM: Homo sapiens; for viability at 4.677 µM: log (dose) [M] -5.33, 72 h; for viability at 0.1 µM: log (dose) [M] -7, 72 h; for senolytic activity (in words): experimental screen, OIS IMR90 ER:RAS
Procedure, shortened: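 We compared total nuclei counts between senescent and non-senescent IMR90 ER:RAS cells after 72 h compound exposure (10 nM–10 μM). Hoechst staining followed fixation and permeabilisation; ouabain served as senolytic positive control.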

[2] = system: non-senescent control A549 cells; test: Nuclei count senolytic assay, TIS model, non-senescent control cells; conditions: Homo sapiens, A549, Control cells, mean, read-out: Mean % Cell Survival; for viability at 10 µM: log (dose) [M] -5; for viability at 4.68 µM: log (dose) [M] -5.33; for viability at 2.19 µM: log (dose) [M] -5.66; for viability at 1 µM: log (dose) [M] -6; for viability at 0.468 µM: log (dose) [M] -6.33; for viability at 0.219 µM: log (dose) [M] -6.66; for viability at 0.1 µM: log (dose) [M] -7; for viability at 0.0468 µM: log (dose) [M] -7.33; for viability at 0.01 µM: log (dose) [M] -8; for viability at 0.0219 µM: log (dose) [M] -7.66
Procedure, shortened: (§1)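 Nuclei counting by high-content imaging after 72 h compound treatment of senescent (etoposide-induced) versus control A549 cells. Top dose 10 μM final, lowest 10 nM.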

[3] = system: senescent A549 cells (etoposide-induced); test: Nuclei count senolytic assay, therapy-induced senescence (TIS) model, senescent cells; conditions: Homo sapiens, A549, Senescent cells, mean, read-out: Mean % Cell Survival; for viability at 10 µM: log (dose) [M] -5; for viability at 4.68 µM: log (dose) [M] -5.33; for viability at 2.19 µM: log (dose) [M] -5.66; for viability at 1 µM: log (dose) [M] -6; for viability at 0.468 µM: log (dose) [M] -6.33; for viability at 0.219 µM: log (dose) [M] -6.66; for viability at 0.1 µM: log (dose) [M] -7; for viability at 0.0468 µM: log (dose) [M] -7.33; for viability at 0.0219 µM: log (dose) [M] -7.66; for viability at 0.01 µM: log (dose) [M] -8
Procedure, shortened: as §1

[4] = IMR-90, 72 h, Senescent, log (dose) [M] -5, 72 h, mean n=3 (Fig 3C), read-out: Mean % Cell Survival
[5] = IMR-90, 72 h, Senescent, mean n=3 (Fig 3C), read-out: Mean % Cell Survival
[6] = IMR-90, 72 h, Senescent, log (dose) [M] -5.66, 72 h, mean n=3 (Fig 3C), read-out: Mean % Cell Survival
[7] = IMR-90, 72 h, Senescent, log (dose) [M] -6, 72 h, mean n=3 (Fig 3C), read-out: Mean % Cell Survival
[8] = IMR-90, 72 h, Senescent, log (dose) [M] -6.33, 72 h, mean n=3 (Fig 3C), read-out: Mean % Cell Survival
[9] = IMR-90, 72 h, Senescent, log (dose) [M] -6.66, 72 h, mean n=3 (Fig 3C), read-out: Mean % Cell Survival
[10] = IMR-90, 72 h, Senescent, log (dose) [M] -7.33, 72 h, mean n=3 (Fig 3C), read-out: Mean % Cell Survival
[11] = IMR-90, 72 h, Senescent, log (dose) [M] -7.66, 72 h, mean n=3 (Fig 3C), read-out: Mean % Cell Survival
[12] = IMR-90, 72 h, Senescent, log (dose) [M] -8, 72 h, mean n=3 (Fig 3C), read-out: Mean % Cell Survival
[13] = IMR-90, Senescent cells, log (dose) [M] -7.33, individual replicates, SUP FIG 4C, read-out: % Cell Survival
[14] = IMR-90, Senescent cells, log (dose) [M] -5, individual replicates, SUP FIG 4C, read-out: % Cell Survival
[15] = IMR-90, Senescent cells, log (dose) [M] -5.66, individual replicates, SUP FIG 4C, read-out: % Cell Survival
[16] = IMR-90, Senescent, log (dose) [M] -8, read-out: % Cell Survival

Compound Cc1cc2c(C(C)C)c(O)c(O)c(C=O)c2c(O)c1-c1c(C)cc2c(C(C)C)c(O)c(O)c(C=O)c2c1O [Gossypol, gossypol] has a viability at 10 µM [1, 4] of 26.6%, a viability at 4.677 µM [1, 5] of 121% and a viability at 2.188 µM [1, 6] of 156%. For the same compound, the viability at 1 µM [1, 7] was 166%, the viability at 0.4677 µM [1, 8] was 168% and the viability at 0.2188 µM [1, 9] was 188%. The viability at 0.1 µM [1, 5] was 130%, the viability at 0.04677 µM [1, 10] was 120% and the viability at 0.02188 µM [1, 11] was 145%. The viability at 0.01 µM [1, 12] was 116%, the viability at 0.2188 µM ([1]; IMR-90, Senescent cells, log (dose) [M] -6.66, individual replicates, SUP FIG 4C, read-out: % Cell Survival) was 189% and the viability at 0.04677 µM [1, 13] was 127%. The viability at 10 µM [2] was 117%, the viability at 4.68 µM [2] was 107% and the viability at 2.19 µM [2] was 100%. For the same compound, the viability at 1 µM [2] was 101%, the viability at 0.468 µM [2] was 108% and the viability at 0.219 µM [2] was 94.5%. The viability at 0.1 µM [2] was 68%, the viability at 0.0468 µM [2] was 101% and the viability at 0.01 µM [2] was 78.1%. The viability at 10 µM [3] was 110%, the viability at 4.68 µM [3] was 146% and the viability at 2.19 µM [3] was 166%. The viability at 1 µM [3] was 126%, the viability at 0.468 µM [3] was 74.4% and the viability at 0.219 µM [3] was 149%. For the same compound, the viability at 0.1 µM [3] was 112%, the viability at 0.0468 µM [3] was 69.1% and the viability at 0.0219 µM [3] was 107%. The viability at 0.01 µM [3] was 117%.
In the case of COc1cc(/C=C/C(=O)O[C@H]2CC[C@]34C[C@]35CC[C@]3(C)[C@@H]([C@H](C)CCC=C(C)C)CC[C@@]3(C)[C@@H]5CC[C@H]4C2(C)C)ccc1O [Gamma oryzanol, gamma oryzanol], the viability at 10 µM [1, 4] is reported as 145%, the viability at 4.677 µM [1, 5] is reported as 134% and the viability at 2.188 µM [1, 6] is reported as 135%. For the same compound, the viability at 1 µM [1, 7] was 139%, the viability at 0.4677 µM [1, 8] was 141% and the viability at 0.2188 µM [1, 9] was 142%. The viability at 0.1 µM [1, 5] was 132%, the viability at 0.04677 µM [1, 10] was 151% and the viability at 0.02188 µM [1, 11] was 154%. For the same compound, the viability at 0.01 µM [1, 12] was 125%, the viability at 10 µM [1, 14] was 150% and the viability at 2.188 µM [1, 15] was 137%. The viability at 0.4677 µM ([1]; IMR-90, Senescent cells, log (dose) [M] -6.33, individual replicates, SUP FIG 4C, read-out: % Cell Survival) was 153%, the viability at 0.01 µM [1, 16] was 81.6% and the “senolytic activity (in words)” value [1] was “inactive”. It also gave a viability at 10 µM [2] of 37.8%, a viability at 4.68 µM [2] of 35% and a viability at 2.19 µM [2] of 87.4%. The viability at 1 µM [2] was 76.1%, the viability at 0.468 µM [2] was 75.3% and the viability at 0.219 µM [2] was 109%. It also gave a viability at 0.1 µM [2] of 105%, a viability at 0.0468 µM [2] of 103% and a viability at 0.0219 µM [2] of 106%. It also gave a viability at 0.01 µM [2] of 103%, a viability at 10 µM [3] of 96.8% and a viability at 4.68 µM [3] of 100%. For the same compound, the viability at 2.19 µM [3] was 105%, the viability at 1 µM [3] was 106% and the viability at 0.468 µM [3] was 107%. The viability at 0.219 µM [3] was 105%, the viability at 0.1 µM [3] was 114% and the viability at 0.0468 µM [3] was 126%. The viability at 0.0219 µM [3] was 61.5% and the viability at 0.01 µM [3] was 76%.
O=c1c(O)c(-c2ccc(O)cc2O)oc2cc(O)cc(O)c12 [Morin, morin] gave a viability at 10 µM [1, 4] of 75%, a viability at 4.677 µM [1, 5] of 90.7% and a viability at 2.188 µM [1, 6] of 96.2%. For the same compound, the viability at 1 µM [1, 7] was 91.1%, the viability at 0.4677 µM [1, 8] was 91.7% and the viability at 0.2188 µM [1, 9] was 92.4%. For the same compound, the viability at 0.1 µM [1, 5] was 96.6%, the viability at 0.04677 µM [1, 10] was 95.3% and the viability at 0.02188 µM [1, 11] was 92.3%. For the same compound, the viability at 0.01 µM [1, 12] was 94.2%, the viability at 10 µM [1, 14] was 75.9% and the viability at 0.04677 µM [1, 13] was 87%. It also gave a viability at 0.02188 µM ([1]; IMR-90, Senescent cells, log (dose) [M] -7.66, individual replicates, SUP FIG 4C, read-out: % Cell Survival) of 91.1%, a viability at 2.188 µM ([1]; IMR-90, Senescent, log (dose) [M] -5.66, read-out: % Cell Survival) of 55.7% and a viability at 1 µM ([1]; IMR-90, Senescent, log (dose) [M] -6, read-out: % Cell Survival) of 62.4%. It also gave a viability at 0.2188 µM ([1]; IMR-90, Senescent, log (dose) [M] -6.66, read-out: % Cell Survival) of 63.2%, a viability at 0.02188 µM ([1]; IMR-90, Senescent, log (dose) [M] -7.66, read-out: % Cell Survival) of 95.7% and a viability at 0.01 µM [1, 16] of 93.7%. The “senolytic activity (in words)” value [1] was “inactive”, the viability at 10 µM [2] was 33.9% and the viability at 4.68 µM [2] was 98.9%. For the same compound, the viability at 2.19 µM [2] was 63.6%, the viability at 1 µM [2] was 115% and the viability at 0.468 µM [2] was 104%. For the same compound, the viability at 0.219 µM [2] was 99.4%, the viability at 0.1 µM [2] was 94.4% and the viability at 0.0468 µM [2] was 111%. For the same compound, the viability at 0.0219 µM [2] was 67.6%, the viability at 0.01 µM [2] was 67.4% and the viability at 10 µM [3] was 87.9%. For the same compound, the viability at 4.68 µM [3] was 93.5%, the viability at 2.19 µM [3] was 59.5% and the viability at 1 µM [3] was 67.1%. The viability at 0.468 µM [3] was 88.2%, the viability at 0.219 µM [3] was 69.3% and the viability at 0.1 µM [3] was 84.2%. It also gave a viability at 0.0468 µM [3] of 54.5%, a viability at 0.0219 µM [3] of 87.7% and a viability at 0.01 µM [3] of 95.1%.
In the case of O=c1oc2c(O)c(O)cc3c(=O)oc4c(O)c(O)cc1c4c23 [Ellagic acid, ellagic acid], the viability at 10 µM [1, 4] is reported as 109%, the viability at 4.677 µM [1, 5] is reported as 104% and the viability at 2.188 µM [1, 6] is reported as 113%. The viability at 1 µM [1, 7] was 110%, the viability at 0.4677 µM [1, 8] was 123% and the viability at 0.2188 µM [1, 9] was 122%. It also gave a viability at 0.1 µM [1, 5] of 117%, a viability at 0.04677 µM [1, 10] of 122% and a viability at 0.02188 µM [1, 11] of 114%. The viability at 0.01 µM [1, 12] was 113%, the viability at 2.188 µM [1, 15] was 108% and the viability at 1 µM ([1]; IMR-90, Senescent cells, log (dose) [M] -6, individual replicates, SUP FIG 4C, read-out: % Cell Survival) was 117%. The viability at 10 µM [2] was 90.6%, the viability at 4.68 µM [2] was 76.6% and the viability at 2.19 µM [2] was 114%. It also gave a viability at 1 µM [2] of 78.9%, a viability at 0.468 µM [2] of 39.9% and a viability at 0.219 µM [2] of 77.2%. It also gave a viability at 0.1 µM [2] of 65.1%, a viability at 0.0468 µM [2] of 99% and a viability at 0.0219 µM [2] of 94.5%. The viability at 0.01 µM [2] was 109%, the viability at 10 µM [3] was 187% and the viability at 4.68 µM [3] was 175%. It also gave a viability at 2.19 µM [3] of 203%, a viability at 1 µM [3] of 186% and a viability at 0.468 µM [3] of 193%. It also gave a viability at 0.219 µM [3] of 167%, a viability at 0.1 µM [3] of 209% and a viability at 0.0468 µM [3] of 241%. For the same compound, the viability at 0.0219 µM [3] was 81.3% and the viability at 0.01 µM [3] was 84.4%.
